Reference: patent US9464084B2, “P2X7 modulators” (Janssen Pharmaceutica NV, priority 2013, dated 2016)

How the values were obtained:
rat P2X7 = rat P2X7 (Rattus norvegicus (Rat), UniProt Q64663); test: Ca2+ flux (FLIPR) in 1321N1 cells expressing recombinant rat P2X7 channel; assay type: cell-based; settings: 250 μM BzATP;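 also: Calcium-4 dye fluorescence change read 180 s after agonist addition, following 30 min cell preincubation with test compound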
P2X7 = P2X7 (Homo sapiens (Human), UniProt Q99572); test: P2X7 antagonism in human PBMCs (LPS + Bz-ATP induced IL-1β release, ELISA); assay type: cell-based; settings: LPS 30 ng/ml, Bz-ATP 0.5 mM; for PBMC 10 μM (% control): compound 10 μM; for PBMC 1 μM (% control): compound 1 μM;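 as to all read-outs here: PBMCs from donor human blood, with a further 1.5 h incubation of the cells in the assay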
Chain of P2X7 (Q99572 whole entry): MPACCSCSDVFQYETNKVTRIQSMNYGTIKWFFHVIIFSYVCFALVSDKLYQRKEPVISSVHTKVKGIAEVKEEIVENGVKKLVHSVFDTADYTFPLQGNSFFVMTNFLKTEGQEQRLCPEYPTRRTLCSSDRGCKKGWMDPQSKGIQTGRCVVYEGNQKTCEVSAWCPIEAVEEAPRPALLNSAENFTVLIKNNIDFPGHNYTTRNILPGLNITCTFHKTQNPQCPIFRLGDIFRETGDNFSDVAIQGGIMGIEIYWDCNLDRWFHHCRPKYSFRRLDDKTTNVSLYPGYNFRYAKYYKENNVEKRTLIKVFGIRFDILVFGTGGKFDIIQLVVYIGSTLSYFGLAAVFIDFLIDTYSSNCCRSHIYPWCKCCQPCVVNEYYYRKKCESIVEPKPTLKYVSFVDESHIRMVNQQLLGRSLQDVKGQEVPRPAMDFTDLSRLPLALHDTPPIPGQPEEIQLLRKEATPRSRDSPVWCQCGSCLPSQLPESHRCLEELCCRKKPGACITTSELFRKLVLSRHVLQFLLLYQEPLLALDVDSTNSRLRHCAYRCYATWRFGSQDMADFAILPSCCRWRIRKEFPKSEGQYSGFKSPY

Chain of rat P2X7 (Q64663 whole entry): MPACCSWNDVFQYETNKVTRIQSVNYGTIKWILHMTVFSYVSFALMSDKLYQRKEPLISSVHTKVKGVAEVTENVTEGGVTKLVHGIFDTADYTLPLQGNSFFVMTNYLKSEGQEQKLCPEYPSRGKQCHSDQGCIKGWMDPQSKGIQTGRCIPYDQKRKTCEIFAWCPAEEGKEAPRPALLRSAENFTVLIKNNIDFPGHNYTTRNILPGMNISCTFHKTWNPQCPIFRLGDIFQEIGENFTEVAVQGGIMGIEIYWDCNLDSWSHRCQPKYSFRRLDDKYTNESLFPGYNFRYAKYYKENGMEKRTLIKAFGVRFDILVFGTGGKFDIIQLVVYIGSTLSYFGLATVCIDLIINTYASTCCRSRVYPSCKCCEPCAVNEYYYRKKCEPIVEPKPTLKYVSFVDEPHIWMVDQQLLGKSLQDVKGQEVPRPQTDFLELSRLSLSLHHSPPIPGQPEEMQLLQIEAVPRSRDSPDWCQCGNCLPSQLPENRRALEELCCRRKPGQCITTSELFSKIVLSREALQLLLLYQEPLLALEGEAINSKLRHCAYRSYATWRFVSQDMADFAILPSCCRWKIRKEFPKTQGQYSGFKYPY

| SMILES | IC50 (rat P2X7) [nM] | PBMC 10 μM (% control) (P2X7) | PBMC 1 μM (% control) (P2X7) |
| --- | --- | --- | --- |
| C[C@@H]1c2nnn(-c3ccn(CCF)n3)c2CCN1C(=O)c1cccc(C(F)(F)F)c1Cl (single isomer, unassigned) [Example 171, (R*)-(2-Chloro-3-(trifluoromethyl)phenyl)(1-(1-(2-fluoroethyl)-1H-pyrazol-3-yl)-4-methyl-6,7-dihydro-1H-[1,2,3]triazolo[4,5-c]pyridin-5(4H)-yl)methanone] | > 10000 | 28.7 | – |
| Cc1cc(C)nc(-n2nnc3c2CCN(C(=O)c2cccc(C(F)(F)F)c2Cl)[C@@H]3C)n1 (single isomer, unassigned) [Example 181, (R*)-(2-chloro-3-(trifluoromethyl)phenyl)(1-(4,6-dimethylpyrimidin-2-yl)-4-methyl-6,7-dihydro-1H-[1,2,3]triazolo[4,5-c]pyridin-5(4H)-yl)methanone] | > 10000 | −0.1 | – |
| C[C@H]1c2ncn(-c3ccccn3)c2CCN1C(=O)c1cccc(Cl)c1Cl (single isomer, unassigned) [Example 191, (S*)-(2,3-Dichlorophenyl)(4-methyl-1-(pyridin-2-yl)-6,7-dihydro-1H-imidazo[4,5-c]pyridin-5(4H)-yl)methanone] | 1300 | 5.2 | – |
| C[C@@H]1c2ncn(-c3ccccn3)c2CCN1C(=O)c1cccc(Cl)c1Cl (single isomer, unassigned) [Example 192, (R*)-(2,3-Dichlorophenyl)(4-methyl-1-(pyridin-2-yl)-6,7-dihydro-1H-imidazo[4,5-c]pyridin-5(4H)-yl)methanone] | 10000 | −6.3 | – |
| C[C@@H]1Cc2c(nnn2-c2cc(F)ccn2)CN1C(=O)c1cccc(Cl)c1Cl (single isomer, unassigned) [Example 195, (6R*)-5-[(2,3-Dichlorophenyl)carbonyl]-1-(4-fluoropyridin-2-yl)-6-methyl-4,5,6,7-tetrahydro-1H-[1,2,3]triazolo[4,5-c]pyridine] | 10.8 | 14.4 | – |
| C[C@H]1Cc2c(nnn2-c2cc(F)ccn2)CN1C(=O)c1cccc(Cl)c1Cl (single isomer, unassigned) [Example 196, (6S*)-5-[(2,3-Dichlorophenyl)carbonyl]-1-(4-fluoropyridin-2-yl)-6-methyl-4,5,6,7-tetrahydro-1H-[1,2,3]triazolo[4,5-c]pyridine] | 2620 | −3.1 | – |
| C[C@@H]1c2n[nH]c(-c3ncc(F)cn3)c2CCN1C(=O)c1cccc(C(F)(F)F)c1Cl (single isomer, unassigned) [Example 223, (R*)-(2-chloro-3-(trifluoromethyl)phenyl)(3-(5-fluoropyrimidin-2-yl)-7-methyl-4,5-dihydro-2H-pyrazolo[3,4-c]pyridin-6(7H)-yl)methanone] | 564 | 1.8 | – |
| C[C@H]1Cc2c(nnn2-c2ncc(F)cn2)CN1C(=O)c1cc(C(F)(F)F)ccc1F (single isomer, unassigned) [Example 232, (S*)-(2-fluoro-5-(trifluoromethyl)phenyl)(1-(5-fluoropyrimidin-2-yl)-6-methyl-6,7-dihydro-1H-[1,2,3]triazolo[4,5-c]pyridin-5(4H)-yl)methanone] | > 10000 | 7.5 | – |
| Cc1ccc(-n2nnc3c2CCN(C(=O)c2cccc(C(F)(F)F)c2Cl)[C@@H]3C)nc1 (single isomer, unassigned) [Example 255, (R*)-(2-chloro-3-(trifluoromethyl)phenyl)(4-methyl-1-(5-methylpyridin-2-yl)-6,7-dihydro-1H-[1,2,3]triazolo[4,5-c]pyridin-5(4H)-yl)methanone] | 211 | −5.5 | – |
| CCc1ccnc(-n2nnc3c2CCN(C(=O)c2cccc(C(F)(F)F)c2Cl)[C@@H]3C)n1 (single isomer, unassigned) [Example 294, (R*)-(2-chloro-3-(trifluoromethyl)phenyl)(1-(4-ethylpyrimidin-2-yl)-4-methyl-6,7-dihydro-1H-[1,2,3]triazolo[4,5-c]pyridin-5(4H)-yl)methanone] | 2.8 | −8.1 | – |
| Cc1nc(-n2nnc3c2CCN(C(=O)c2cccc(C(F)(F)F)c2Cl)[C@@H]3C)ncc1F (single isomer, unassigned) [Example 305, (R*)-(2-chloro-3-(trifluoromethyl)phenyl)(1-(5-fluoro-4-methylpyrimidin-2-yl)-4-methyl-6,7-dihydro-1H-[1,2,3]triazolo[4,5-c]pyridin-5(4H)-yl)methanone] | 19.7 | 0.9 | – |
| CCOc1cccnc1-n1nnc2c1CCN(C(=O)c1cccc(C(F)(F)F)c1Cl)[C@@H]2C (single isomer, unassigned) [Example 316, (R*)-(2-chloro-3-(trifluoromethyl)phenyl)(1-(3-ethoxypyridin-2-yl)-4-methyl-6,7-dihydro-1H-[1,2,3]triazolo[4,5-c]pyridin-5(4H)-yl)methanone] | 2210 | −9.6 | – |
| CCOc1cccnc1-n1nnc2c1CCN(C(=O)c1cccc(C(F)(F)F)c1Cl)[C@H]2C (single isomer, unassigned) [Example 317, (S*)-(2-chloro-3-(trifluoromethyl)phenyl)(1-(3-ethoxypyridin-2-yl)-4-methyl-6,7-dihydro-1H-[1,2,3]triazolo[4,5-c]pyridin-5(4H)-yl)methanone] | > 10000 | 4.8 | – |
| CC1c2ncn(-c3cnccn3)c2CCN1C(=O)c1cccc(C(F)(F)F)c1F (centres unmarked) [Example 14, (2-Fluoro-3-(trifluoromethyl)phenyl)(4-methyl-1-(pyrazin-2-yl)-6,7-dihydro-1H-imidazo[4,5-c]pyridin-5(4H)-yl)methanone] | 141 | – | 12.8 |
| CC1c2ncn(-c3ncccn3)c2CCN1C(=O)c1cccc(C(F)(F)F)c1Cl (centres unmarked) [Example 23, (2-Chloro-3-(trifluoromethyl)phenyl)(4-methyl-1-(pyrimidin-2-yl)-6,7-dihydro-1H-imidazo[4,5-c]pyridin-5(4H)-yl)methanone] | 90.6 | 6.4 | – |
| CCOC(=O)C1c2ncn(-c3ccccc3)c2CCN1C(=O)c1cccc(Cl)c1Cl (centres unmarked) [Example 27, Ethyl 5-(2,3-dichlorobenzoyl)-1-phenyl-4,5,6,7-tetrahydro-1H-imidazo[4,5-c]pyridine-4-carboxylate] | 1890 | – | 39.2 |
| O=C(c1cccc(C(F)(F)F)c1Cl)N1CCc2c(ncn2-c2ccccn2)C1CF (centres unmarked) [Example 32, (2-Chloro-3-(trifluoromethyl)phenyl)(4-(fluoromethyl)-1-(pyridin-2-yl)-6,7-dihydro-1H-imidazo[4,5-c]pyridin-5(4H)-yl)methanone] | 65.5 | 1.9 | – |
| Cn1nc2c(c1-c1ccc(F)cc1)CCN(C(=O)c1cccc(Cl)c1Cl)C2 [Example 326, (2,3-dichlorophenyl)(3-(4-fluorophenyl)-2-methyl-4,5-dihydro-2H-pyrazolo[3,4-c]pyridin-6(7H)-yl)methanone] | – | – | 92.0 |
